“Also recorded” adds a separate entry of the source.
Columns and labels:
[1] = system: human squamous cell carcinoma (A431); experiment: first in vivo test, A431 xenograft in athymic mice, assessed 15 days after implantation (Experimental Test 7); parameters: species or system human tumor in athymic mice; settings: for % Inhibition of tumor growth: q1d×5;1, 15 days; for toxicity: 100 mg/kg
Method: Tumor growth was assessed by measuring the change in tumor size over a fifteen day period. Although naamidine A inhibited tumor growth, the inhibition was a modest 37%. Therefore, a second evaluation was carried out using a different schedule of treatment and evaluation.
J. Oncology, 1:293-298 (1992).
Tumor growth was calculated as FTS/ITS. […] Experimental Test 7.
The effect of naamidine A on the tumor was assessed 15 days after tumor implantation and there were six mice per treatment group.

[2] = system: human squamous cell carcinoma (A431); experiment: second in vivo test, A431 xenograft in athymic mice, assessed 7 days after implantation (Experimental Test 8); settings: for % Inhibition of tumor growth: q1d×5;1, 7 days; for deaths: q1d×5;1, six mice per group
Method: In this test, the mice were treated with varying dosages of naamidine A for five days after implantation of the carcinoma. The tumors were then evaluated for growth activity seven days after implantation, as determined by the change in tumor size.
The model system used for these in vivo studies was a human squamous cell carcinoma (A431) that over expresses the EGF receptor, which was implanted into athymic mice.
According to Robinson et al., the A431 cell line was adapted to grow in female athymic mice by s.c. inoculation of 10^7 cultured cells into the axillary region. Tumors were passaged in female athymic mice by sterile dissection of solid tumors and s.c. implantation of tumor fragments into the axillary region.
Drug effects were calculated as the mean % inhibition the drug treatment produced on tumor growth when compared to control. Inhibition of >80% of tumor growth was considered a working criteria for "active".
In this second in vivo test, the length of time for tumor growth was shortened to seven days to more closely coincide with the time of drug treatment. Two groups of twelve mice each were treated with the standard antibody (MA225), while there were six mice per group treated with varying doses of naamidine A.
The tumor was exposed to the test agent (naamidine A) once a day for 5 days (q1 d×5; 1), which was nearly the entire length of the growth period of 7 days. During this time, the tumor would normally be expected to double about 1.5 times instead of 3 times for a 15 day period.
Under these conditions, doses ranging from 0.78 mg/kg to 50 mg/kg were given using the same dosing schedule as with the first experiment.

[3] = system: EGF-induced mitogenesis in EC25 cells (NIH3T3 cells transfected with the EGF receptor gene); experiment: EGF mitogenic assay (3H-thymidine incorporation), EGF stimulation; assay type: cell-based, human
Description: The assay to determine a compound's selectivity compares the level of inhibition of the targeted activity (EGF stimulation of cell growth) with the inhibition of insulin stimulated cell growth.
(§1) An in vitro bioassay, called the EGF mitogenic assay, was used to aid in the identification of antagonists of EGF dependent cell proliferation. The mitogenic response due to EGF is quantified by measuring the incorporation of ^3 H-thymidine into NIH3T3 cells (or "EC25 cells") that have been transfected with the EGF receptor gene. Stimulation of these cells with insulin is used as a "nonspecific" mitogen control. Samples were preincubated with the EC25 cells for one hour before the addition of the mitogen, then further incubated for 16 hours, and mitogenic stimulation assessed by a one hour incorporation of ^3 H-thymidine. The development of the EC25 cell line, and the EGF mitogenic assay in which it is used, is explained in greater detail in Velu, T. J. et al., "Epidermal Growth Factor-Dependent Transformation by a Human EGF Receptor Proto-Oncogene, " Science 238:1408-10 (1987).
(§2) The concentration at which control insulin stimulation is inhibited 50% by the test sample (IC50(insutin)) was calculated as was the same value for EGF (IC50(EGF)). These values were then used to calculate a specificity ratio which is IC50(insulin)/ IC50(EGF).
These activity criteria help determine which inhibitors are specific for the EGF signalling pathway.

c-src tyrosine kinase = c-src tyrosine kinase (Homo sapiens, UniProt P12931); experiment: c-src tyrosine kinase assay (phosphorylation of RCM lysozyme); assay type: biochemical; settings: isolated c-src, RCM lysozyme substrate, 30 minutes
Method: Experimental Test 5. […] In this assay, phosphorylation of the substrate RCM (reduced, carboxyamidomethylated and maleylated) lysozyme by c-src is quantified using a peroxidase-linked anti-phosphotyrosine antibody to determine the activity of this kinase.
The sample of naamidine A was incubated with the substrate RCM […], c-src enzyme, and ATP for 30 minutes, after which time the reaction was terminated and tyrosine phosphorylation was assessed using a peroxidase-linked antiphosphotyrosine antibody.

[4] = system: insulin stimulation of EC25 cells; experiment: EGF mitogenic assay (3H-thymidine incorporation), insulin stimulation as nonspecific mitogen control; assay type: cell-based; settings: pure sample
Method: as §1, §2

EGF receptor = experiment: competition with binding of biotinylated EGF to A431 cells; parameters: species or system human; settings: up to 500 μg/ml
Method: Experimental Test 4. Presently, the mechanism of action of naamidine A for inhibition of the EGF signalling pathway is unknown. […] This assay measured the ability of naamidine A to compete with the binding of biotinylated EGF to the EGF receptor, which is highly over expressed in A431 human squamous cell carcinoma cells.
In the assay represented in FIG. 3, the A431 cells were incubated in the presence of either the EGF standard or naamidine A plus biotinylated EGF for one hour and the degree of inhibition of biotinylated EGF binding to the EGF receptor was quantified using a peroxidase-linked anti-biotin antibody. The solid circles (.circle-solid.) in FIG. 3 represent the level of binding of EGF to cell receptors when the cells are subjected to various levels of naamidine A. The open circles (.largecircle.) represent the level of binding of EGF to cell receptors when the cells are subjected to various levels of EGF, which is used as a positive control.

[5] = 25 mg/kg, listed as Naamidine A

Method for HCT116 colon cells: In the XTT assay, cells are plated at 4000 cells/well in 96 well microtiter plates; 24 hours later the test drugs are added and serially diluted. The cells are incubated at 37° C. for 72 hours, at which time the tetrazolium dye, XTT, is added. A dehydrogenase enzyme in live cells reduces the XTT to a form that absorbs light at 450 nm which can be quantitated spectrophotometrically. The greater the absorbance the greater the number of live cells. The results are expressed as an IC50 which is the drug concentration required to inhibit cell proliferation (i.e., absorbance at 450 nm) to 50% of that of untreated control cells.

Substance: naamidine A
- % Inhibition of tumor growth ([1]; 1.6 mg/kg): 36.6%
- % Inhibition of tumor growth ([1]; 6.25 mg/kg): 32.2%
- % Inhibition of tumor growth ([1]; 25 mg/kg): 37%
- % Inhibition of tumor growth [1, 5]: 37.1%
- net reduction in tumor cell growth ([1]; first in vivo test, 15 days, includes period of regrowth): 30-40%
- toxicity ([1]; mice, q1d×5;1): toxic to the mice
- toxicity ([1]; mice, q1d×5;1, listed as Naamidine A): toxic (multiple deaths)
- maximally tolerated dose ([1]; mice, q1d×5;1, 21600 min): 25 mg/kg
- % Inhibition of tumor growth ([2]; 1.56 mg/kg): 47.9%
- % Inhibition of tumor growth ([2]; 3.13 mg/kg): 35%
- % Inhibition of tumor growth ([2]; 6.25 mg/kg): -7.5%
- % Inhibition of tumor growth ([2]; 12.5 mg/kg): 52%
- % Inhibition of tumor growth ([2]; 25 mg/kg): at least 85%
- % Inhibition of tumor growth [2, 5]: 87.4%
- % Inhibition of tumor growth ([2]; 50 mg/kg): 96.4%
- deaths (in words) ([2]; mice, 25 mg/kg): death of one mouse
- deaths ([2]; mice, 25 mg/kg): 1 death
- toxicity (in words) ([2]; mice, 50 mg/kg): toxic to many of the mice
- deaths ([2]; mice, 50 mg/kg): 2 deaths
- maximal tolerated dose ([2]; mice, q1d×5;1, 10080 min): 25 mg/kg
- LD-10 (dose at which 10% of the mice died) ([2]; mice, q1d×5;1, roughly estimated from Experimental Test 8): about 25 mg/kg
- Tumor growth inhibition ([2]; somewhat toxic doses, 7 days, best results at about 25 mg/kg): about 85%
- activity in the EGF assay (in words) ([3]; EC25 cells): very good activity
- IC50(EGF) ([3]; EC25 cells, EGF stimulation, pure sample): 4.8 mg/L
- IC50(insulin)/IC50(EGF) ratio ([3]; EC25 cells, specificity ratio): 22
- specificity for EGF versus insulin stimulated response (in words) ([3]; tritiated thymidine incorporation after EGF or insulin stimulation): less potent in inhibiting insulin stimulated cell proliferation compared to EGF stimulated growth; also recorded: more specific for the EGF mediated mitogenic response than for the insulin mediated mitogenic response
- selectivity in inhibiting EGF dependent growth relative to insulin dependent growth ([3]; tritiated thymidine incorporation, preliminary testing): about 22 times
- inhibition of c-src tyrosine kinase activity (in words) (c-src tyrosine kinase): lack of c-src tyrosine kinase activity; also recorded: not inhibit the activity of the isolated c-src tyrosine kinase; also recorded: no significant inhibition of c-src tyrosine kinase activity
- general in vitro cytotoxicity (in words) (HCT116 colon cells): relatively low general in vitro cytotoxicity
- IC50 (HCT116 colon cells; HCT116, XTT, 72 hours): 31 mg/L
- IC50(insulin) [4]: 105.6 mg/L
- effect on binding of EGF to its receptor (EGF receptor): does not appear to affect the binding of EGF to its corresponding receptor cite; also recorded: did not appear to effect the binding of EGF to receptor sites

— patent US5574057A, “Naamidine A extracted from sea sponges and methods for its use as an anti-tumor agent” (priority 1994, dated 1996)
